Where two headings read alike, the source gives them in different places. Where a SMILES comes first, the peptide text is derived from it. Bridges are numbered along the chain shown (N, C = ends). [ ]: non-standard residue; d: D form. 2Nal = N[C@@H](Cc1ccc2ccccc2c1)C(=O)O; d2Nal = N[C@H](Cc1ccc2ccccc2c1)C(=O)O; Lys(iPr) = CC(C)NCCCC[C@H](N)C(=O)O
How the values were obtained:
rat NMB receptor = biological target: T1, rat NMB receptor (Rattus norvegicus, UniProt P24053); assay: Binding of 125I-[D-Tyr0]NMB to NMB-R transfected BALB 3T3 cells; details: for fold decrease in NMB receptor affinity compared with cyclo SS-octa (#1): structure-function comparison from Table 1
T1 construct: a full length NMB-preferring bombesin receptor clone generated from rat esophagus; expressed in transfected cells
T1 sequence (P24053 1-390): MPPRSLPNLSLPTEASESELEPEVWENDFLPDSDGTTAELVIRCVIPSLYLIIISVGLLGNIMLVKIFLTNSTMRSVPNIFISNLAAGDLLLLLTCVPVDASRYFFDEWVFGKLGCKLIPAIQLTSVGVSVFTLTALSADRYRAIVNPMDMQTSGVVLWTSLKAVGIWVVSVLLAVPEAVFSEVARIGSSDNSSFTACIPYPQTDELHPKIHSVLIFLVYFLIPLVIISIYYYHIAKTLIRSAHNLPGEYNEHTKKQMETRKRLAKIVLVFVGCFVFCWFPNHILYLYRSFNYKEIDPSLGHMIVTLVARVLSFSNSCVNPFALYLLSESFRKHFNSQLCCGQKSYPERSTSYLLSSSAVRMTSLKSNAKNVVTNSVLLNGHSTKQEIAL
Protocol: (§1) Cells were passaged every 3-4 days at confluence, using 0.1% trypsin in 1 mM EDTA. Rat glioblastoma C-6 tumor cells were maintained similarly and were passaged weekly at confluence. Both cell lines were cultured at 37° C. in a 5% CO2 atmosphere. Rat AR 42J pancreatic acinar cells were cultured in Dulbecco's modified Eagle's medium (DMEM) without antibiotics and supplemented with 10% (vol/vol) fetal calf serum. The incubation atmosphere consisted of 10% CO2 -90% humidified air at 37° C.

[1] = biological target: T2, NMB receptors on C-6 cells (Rattus norvegicus, UniProt P24053); assay: Binding of 125I-[D-Tyr0]NMB to C-6 glioblastoma cells; details: Ki by Cheng method, read-out: Ki 125I-NMB Binding, NMB Receptor, C-6 Cells
T2 construct: endogenous in cells; host or cells: rat glioblastoma C-6 cells
T2 sequence (P24053 1-390): T1 sequence (P24053 1-390)
Protocol: Binding of ^125 I-[D-Tyr^0 ]NMB to C-6 glioblastoma and NMB-R transfected cells
Binding studies using rat glioblastoma C-6 or NMB-R transfected cells were performed as described previously [Benya, R. V. et al. Mol. Pharmacol. 42:1058 (1992); and Wang, L-H. et al. Biochem. J. 286:641 (1992)] by suspending disaggregated cells in binding buffer, which was composed of standing buffer ([…], 7.7 mM KCl, 1.0 mM EGTA, 0.02% soybean trypsin inhibitor) additionally containing 50 mM HEPES, 1 mM MgCl2, 1.5 mM CaCl2, 2.2 mM KH2 PO4, 0,015% glutamine, and 0.2% BSA (w/v) (pH 7.4). Incubations contained 75 pM ^125 I-[D-Tyr^0 ]NMB and 15×10^6 C-6 cells/ml or 2×10^6 NMB-R transfected cells/ml, for 60 min at 22° C. Nonsaturable binding of ^125 I-[D-Tyr^0 ]NMB was the amount of radioactivity associated with C-6 cells or NMB-R transfected cells when the incubation mixture contained […] NMB. Nonsaturable binding was<15% of total binding in all experiments; all values are reported herein as saturable binding (i.e., total minus nonsaturable binding).

[2] = biological target: T3, GRP receptors on rat pancreatic acini (Rattus norvegicus, UniProt P52500); assay: Binding of 125I-[Tyr4]bombesin to pancreatic acini; details: read-out: Ki 125I-[Tyr4]Bn Binding, GRP Receptor, Rat Pancreatic Acini; Ki by Cheng method
T3 construct: from tissue; host or cells: dispersed pancreatic acini
T3 sequence (P52500 whole entry): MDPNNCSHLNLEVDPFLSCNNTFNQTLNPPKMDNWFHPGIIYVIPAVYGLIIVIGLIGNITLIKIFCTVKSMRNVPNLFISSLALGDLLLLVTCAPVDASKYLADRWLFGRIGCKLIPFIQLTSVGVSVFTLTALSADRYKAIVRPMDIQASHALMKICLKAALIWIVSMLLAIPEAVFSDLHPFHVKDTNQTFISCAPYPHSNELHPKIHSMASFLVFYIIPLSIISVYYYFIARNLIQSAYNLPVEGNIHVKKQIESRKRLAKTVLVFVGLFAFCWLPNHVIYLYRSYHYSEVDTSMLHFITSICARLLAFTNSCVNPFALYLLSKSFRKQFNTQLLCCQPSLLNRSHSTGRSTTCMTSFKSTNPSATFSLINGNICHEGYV
Description: Nonsaturable binding was<10% of total binding in all experiments.

NMB receptor = biological target: T4, NMB receptor (Rattus norvegicus, UniProt P24053); assay: [3H]inositol phosphates in NMB-R transfected cells (alone or NMB-stimulated); type: cell-based; design: a full length NMB-preferring bombesin receptor clone generated from rat esophagus; expressed in transfected cells; details: NMB-R transfected cells; for IC50 / effect at 10 μM on NMB-stimulated increase in [3H]IP: 3 nM NMB; for [3H]IP, analog Alone (10 μM): analog 10 μM alone, control 13 ± 3; for [3H]IP, analog Plus NMB (3 nM): analog 10 μM plus NMB 3 nM, NMB without analog 186 ± 58
T4 sequence (P24053 1-390): T1 sequence (P24053 1-390)
Protocol: as §1, with “As described previously [Wada, E., et al. Neuron 6:421 (1991)], BALB 3T3 cells expressing a stably transfected rat NMB receptor (NMB-R transfected cells) were obtained using calcium phosphate precipitation of a full length NMB-preferring bombesin receptor clone generated from rat esophagus and subcloned into a modified version of the pCD2 plasmid. Cells” for “Cells”
Measurement of phosphoinositides
Total phosphoinositides in C-6 cells and in NMB-R transfected cells were determined as described previously, with minor modifications [Benya, R. V. et al. Mol. Pharmacol. 42:1058 (1992); and Wang, L-H. et al. Biochem. Jo 286:641 (1992)]. Cells were grown to confluence in 24-well plates and then loaded with 100 μCi/ml myo-[2-^3 H]inositol in Dulbecco's modified essential medium with 2% fetal bovine serum at 37° C. for 48 hrs. Cells were washed and incubated in phosphoinositide buffer (standard buffer additionally containing 10 mM LiCl, 20 mM HEPES, 2 mM CaCl2, 2% BSA, and 1.2 mM MgSO4) for 15 min and then for 60 min at 37° C. with agonists at various concentrations or with 3 nM NMB (a half-maximal effective concentration) and possible antagonists at different concentrations. Reactions were halted using ice-cold 1% HCl in methanol, and the inositol phosphates (IP) were isolated as described previously [Bologna, M. et al. Cancer 63:1714 (1989); and Endo, T. et al. J. Endocrinolo 131:313 (1991)]. Briefly, after loading of the anion exchange column, free [^3 H]glycerophosphorylinositol was removed by washing with 5 mM disodium tetraborate in 60 mM sodium formate. Total [^3 H]inositol phosphates were then eluted using 100 mM formic acid in 1.0M ammonium formate as described previously [Benya, R. V. et al. Mol. Pharmacol. 42:1058 (1992); and Wang, L-H. et al. Biochem. J. 286:641 (1992 )].

GRP receptor = GRP receptor (Rattus norvegicus, UniProt P52500); assay: Amylase release from rat pancreatic acini (alone or Bn-stimulated); type: cell-based; design: from tissue; host or cells: dispersed pancreatic acini; details: for Amylase Release, analog Alone (10 μM): analog 10 μM alone, control 4 ± 1; for Amylase Release, analog Plus Bn (0.3 nM): analog 10 μM plus Bn 0.3 nM, Bn without analog 15 ± 1
GRP receptor, sequence (P52500 whole entry): as above
Protocol: pancreatic acini or [^3 H]myo[2H]inositolloaded NMBR transfected cell
were incubated either with no additives, the somatostatin octapeptide
analog, Bn, or NMB, or a combination for 30 min at 37° C.. Amylase
release from pancreatic acini was expressed at the indicated percent of
the total cellular amylase released during the incubation. [^3 H]IP i
expressed in dpm's. To test for inhibitory effects, the effect of
somatostatin analog (10 μM) was determined on 0.3 nM Bnstimulated

[3] = NMB-R transfected cells, value or range given for a group, read-out: K1, 125I-NMB binding to NMB-R transfected cells (text)
[4] = read-out: IC50 NMB-stimulated [3H]IP, Transfected Cells (values in μM)

Row | Ki (rat NMB receptor; NMB-R transfected BALB 3T3 cells, Ki by Cheng method, read-out: Ki 125I-NMB Binding, NMB Receptor, Transfected Cells) [µM] | Ki [2] [µM] | IC50 (NMB receptor; read-out: IC50 NMB-stimulated [3H]IP, NMB Receptor, Transfected Cells) [µM] | IC50 (GRP receptor; read-out: IC50 Amylase Release, GRP Receptor, Rat Pancreatic Acini) [µM] | Structure (SMILES) | fold by which cyclo SS-octa is more potent than the analog, 125I-NMB binding (rat NMB receptor; NMB-R transfected cells) [fold] | Ki (rat NMB receptor; [3]) [µM] | Ki [1] [µM] | IC50 (NMB receptor; [4]) [µM] | [3H]IP, analog Alone (10 μM) (NMB receptor) [dym × 10^3] | [3H]IP, analog Plus NMB (3 nM) (NMB receptor) [dym × 10^3] | Amylase Release, analog Alone (10 μM) (GRP receptor) [% total] | Amylase Release, analog Plus Bn (0.3 nM) (GRP receptor) [% total] | fold decrease in NMB receptor affinity compared with cyclo SS-octa (#1) (rat NMB receptor) [fold] | effect at 10 μM on NMB-stimulated increase in [3H]IP (NMB receptor)
1 | 2.33 ± 0.397 | 38.1 ± 21.5 | 9.9 ± 2.31 | > 10 | CC(C)NCCCC[C@@H]1NC(=O)[C@@H](Cc2c[nH]c3ccccc23)NC(=O)[C@H](Cc2ccc(O)cc2)NC(=O)[C@@H](NC(=O)[C@H](N)Cc2ccccc2)CSSC[C@@H](C(=O)N[C@@H](Cc2ccc3ccccc3c2)C(N)=O)NC(=O)[C@H]([C@@H](C)O)NC1=O [Analog #15, H2 -D-phe-Cys-Tyr-D-Trp-Lys(ipr)-Thr-Cys-Nal-NH2] (H-[dF]CY[dW][Lys(iPr)]TC[2Nal]-NH2; disulfide 2-7) | 9 | 1.4 to 2.3 | 1.14 ± 0.105 | 7.2 to 9.8 | 11 ± 1 | 67 ± 7 | 4 ± 2 | 13 ± 2 | – | –
2 | – | – | – | – | NCCCC[C@@H]1NC(=O)[C@@H](Cc2c[nH]c3ccccc23)NC(=O)[C@H](Cc2ccc(O)cc2)NC(=O)[C@@H](NC(=O)[C@H](N)Cc2ccc3ccccc3c2)CSSC[C@@H](C(=O)N[C@@H](Cc2ccc3ccccc3c2)C(N)=O)NC(=O)[C@H](Cc2ccc3ccccc3c2)NC1=O [Analog #3, H2 -D-Nal-Cys-Tyr-D-Trp-Lys-Nal-Cys-Nal-NH2] (H-[d2Nal]CY[dW]K[2Nal]C[2Nal]-NH2; disulfide 2-7) | – | – | – | – | 11 ± 1 | 65 ± 15 | 3 ± 1 | 15 ± 1 | 2 to 3 | –
3 | – | – | – | – | CSCC[C@H](NC(=O)[C@H](C)NC(=O)[C@@H]1CCCN1C(=O)[C@H](CC(N)=O)NC(=O)[C@H](CO)NC(=O)[C@H](CC(N)=O)NC(=O)[C@H](C)NC(=O)[C@@H](N)CO)C(=O)N[C@@H](C)C(=O)N1CCC[C@H]1C(=O)N[C@@H](CCCNC(=N)N)C(=O)N[C@@H](CCC(=O)O)C(=O)N[C@@H](CCCNC(=N)N)C(=O)N[C@@H](CCCCN)C(=O)N[C@@H](C)C(=O)NCC(=O)N[C@H]1CSSC[C@@H](C(=O)O)NC(=O)[C@H](CO)NC(=O)[C@H]([C@@H](C)O)NC(=O)[C@H](Cc2ccccc2)NC(=O)[C@H]([C@@H](C)O)NC(=O)[C@H](CCCCN)NC(=O)[C@H](Cc2c[nH]c3ccccc23)NC(=O)[C@H](Cc2ccccc2)NC(=O)[C@H](Cc2ccccc2)NC(=O)[C@H](CC(N)=O)NC(=O)[C@H](CCCCN)NC1=O [SS-28, somatostatin-28, reference compound] | – | – | – | – | – | – | 4 ± 1 | 10 ± 1 | – | –
4 | – | – | – | – | C[C@H](N)C(=O)NCC(=O)N[C@H]1CSSC[C@@H](C(=O)O)NC(=O)[C@H](CO)NC(=O)[C@H]([C@@H](C)O)NC(=O)[C@H](Cc2ccccc2)NC(=O)[C@H]([C@@H](C)O)NC(=O)[C@H](CCCCN)NC(=O)[C@H](Cc2c[nH]c3ccccc23)NC(=O)[C@H](Cc2ccccc2)NC(=O)[C@H](Cc2ccccc2)NC(=O)[C@H](CC(N)=O)NC(=O)[C@H](CCCCN)NC1=O [SS-14, somatostatin-14, reference compound] | – | – | – | – | – | – | 3 ± 1 | 12 ± 1 | – | –
5 | – | – | – | – | CC(C)[C@@H]1NC(=O)[C@H](CCCCN)NC(=O)[C@@H](Cc2c[nH]c3ccccc23)NC(=O)[C@H](Cc2ccc(O)cc2)NC(=O)[C@@H](NC(=O)[C@H](N)Cc2ccc3ccccc3c2)CSSC[C@@H](C(=O)N[C@H](C(N)=O)[C@@H](C)O)NC1=O [Analog #5] | 69 | – | – | – | 11 ± 2 | 179 ± 13 | 3 ± 1 | 12 ± 1 | 80 | no effect
6 | – | – | – | – | CC(C)[C@@H]1NC(=O)[C@H](CCCCN)NC(=O)[C@@H](Cc2c[nH]c3ccccc23)NC(=O)[C@H](Cc2ccc3ccccc3c2)NC(=O)[C@@H](NC(=O)[C@H](N)Cc2ccccc2)CSSC[C@@H](C(=O)N[C@H](C(N)=O)[C@@H](C)O)NC1=O [Analog #18] (H-[dF]C[2Nal][dW]KVCT-NH2; disulfide 2-7) | – | 14 to 19 | 8.32 ± 0.957 | > 10 | 11 ± 1 | 143 ± 11 | – | – | – | no effect
